Experimental data from patent US4263316A, “N-(1-Methyl-2-pyrrolidinylmethyl)-2,3-dimethoxy-5-methylsulfamoyl benzamide and its derivatives, methods of preparing them and their application to the treatment of troubles of the lower part of the body” (Societe d'Etudes Scientifiques et Industrielles de l'Ile de …, priority 1978, dated 1981).
Like-named read-outs stand apart in the source and are kept apart here.

Tests used:
[1] = Acute toxicity (lethal dose) in Swiss mice, parenteral and oral; details: mouse, in vivo
Procedure: The acute toxicity of the compounds of the invention was determined on Swiss mice parenterally, (intravenously, intraperitoneally, subcutaneously) and orally.
Measurement of the lethal doses of N-(1-methyl-2-pyrrolidinylmethyl)-2,3-dimethoxy-5-methylsulphamoyl benzamide (compound 1) and its levorotatory isomer (compound 2) gave the following results: […]

[2] = Clinical tolerance and ease of oral treatment in both indications; type: in vivo, men and women
Text: For both the above indications, the ease of oral treatment was appreciated and the tolerance was excellent.

rat = experiment: Cystomanometry in the anesthetized rat; type: in vivo
Procedure: (§1) A pharmacological study of the compound of the invention which consisted of studying its action on the results of cystomanometry in the rabbit and rat was performed under the following conditions: the animals were anesthesized with pentobarbitol and were given artificial respiration. The left outer jugular vein was catheterized to permit the I.V. injection of the studied product. The bladder was then exteriorized and the two ureters were connected and provided with two catheters, one of which was used to measure the intravesical pressure and the other for the vesical filling.
(§2) The vesical was filled by perfusion of 0.9% salt water at a constant flow rate of 40 ml/min for the rabbit and 5 ml/min for the rat.
(§3) The intravesical pressure before perfusion and the perfused water volume were measured.
(§4) The following parameters were studied: the intravesical pressure before perfusion P1 the intravesical pressure at the time of starting urination P2 […]
(§5) the volume of salt water perfused the quantity discharged during urination the residual quantity only in the bladder.
The cystomanometry study was performed under the following conditions: a first perfusion was carried out after stabilising the preparation for 5 minutes a second perfusion was carried out 15 minutes after the first a third perfusion was carried out 5 minutes after the second. […]

[3] = system: functional disorders of the lower urinary apparatus of men; experiment: Double blind study in males versus lipidosterolic complex extracted from pygeum africanum (prostatism); type: in vivo
Procedure: functional disorders of the lower urinary apparatus of men and particularly in the case of prostatism
(§6) 2. To check these impressions, two studies were carried out according to the double blind procedure:
The study was carried out in comparison with the only possible reference product: lipidosterolic complex extracted from pygeum africanum.

pelvic spasms = experiment: Treatment of pelvic spasms on probe after urological gynecological surgery; type: in vivo; details: intramuscular or intravenous
rabbit = experiment: Cystomanometry in the anesthetized rabbit; type: in vivo
Procedure: as §1, §2, §3, §4, §5
The cystomanometry study was performed under the following conditions: a first perfusion was carried out after stabilising the preparation for 5 minutes a second perfusion was carried out 15 minutes after the first a third perfusion was carried out 5 minutes after the second.
The study was performed by chronic and acute administration to the rabbit and acute administration to the rat.
The study of the rabbit was performed in the following manner:
10 male rabbits having an average weight of 2500±100 g were used as the control batch for the chronic administration study, 10 male rabbits with an average weight of 2500±100 g were treated every morning for 8 days with N-(1-methyl-2-pyrrolidinylmethyl)-2,3-dimethoxy-5-methylsulphamoyl benzamide intramuscularly injected at a dosage of 10 mg/kg/day. The final injection was carried out 30 minutes before the experiment […]
for the acute administration study 2 batches of 10 male rabbits with an average weight of 2500±100 g were treated with N-(1-methyl-2-pyrrolidinylmethyl)-2,3-dimethoxy-5-methylsulphamoyl benzamide intravenously administered at doses of 5 and 50 mg/kg.
For the controls and for all the treated batches the first perfusion is used as a standard for the following perfusions (each animal serving as its own control).
In the case of the acute administration of N-(1-methyl-2-pyrrolidinylmethyl)-2,3-dimethoxy-5-methylsulphamoyl benzamide to both the rabbit and the rat the product was injected at the end of the first perfusion.
There was a delay of 15 minutes before the two other perfusions (this was also respected for the controls in order to adhere to the same experimental conditions).

[4] = system: cystalgias with clear urine in women; experiment: Double blind study in females versus placebo (cystalgias with clear urine); type: in vivo
Procedure: cystalgias with clear urine in women.
as §6
Due to the absence of a reference product the activity of the present product was compared with a placebo.

man = experiment: Gaseous cystomanometric study in man (cases of serious neurological bladder); type: in vivo
Procedure: A person suffering from multiple sclerosis suffered from incontinence, pollakisuria and the very frequent need to urinate. The intramuscular injection of two 100 mg ampules of the compound of the invention delayed the need to urinate for a volume of 150 cm^3, compared with 80 cm^3 before treatment.
A person having psychogenic urinary disorders with incontinence and pollakisuria received two 100 mg ampules of the compound according to the invention by the intramuscular route. They only needed to urinate for a volume of 400 cm^3, compared with 200 cm^3 before treatment. They were able to voluntarily prevent urination for 2 minutes compared with 15 seconds before treatment.

[5] = intravenous, read-out: LD50 I.V.
[6] = ip, intraperitoneal, read-out: LD50 I.P.
[7] = sc, subcutaneous, read-out: LD50 S.C.

CNS(=O)(=O)c1cc(OC)c(OC)c(C(=O)NCC2CCCN2C)c1 (single isomer, unassigned) [Compound 2, Levorotatory N-(1-methyl-2-pyrrolidinylmethyl)-2,3-dimethoxy-5-methylsulphamoyl benzamide]
LD50 [1, 5]: 90 to 94.6 mg/kg
LD50 [1, 6]: 310 to 336 mg/kg
LD50 ([1]; oral, read-out: LD50 P.O.): 1080 to 1150 mg/kg
LD50 [1, 7]: 741 to 780 mg/kg

CNS(=O)(=O)c1cc(OC)c(OC)c(C(=O)NCC2CCCN2C)c1 (stereo not drawn) [Compound 1, N-(1-methyl-2-pyrrolidinylmethyl)-2,3-dimethoxy-5-methylsulphamoyl benzamide]
tolerance [2]: excellent
same phenomena as in the rabbit (ΔP, perfusion volume) (rat; acute I.V. 50 and 100 mg/kg): not observed
urinary volume (rat; second and third perfusions, particularly at I.V. dosage of 50 mg/kg): significant increase
superiority over lipidosterolic complex extracted from pygeum africanum [3]: statistically significant
activity in the treatment of pelvic spasms (pelvic spasms): remarkably active
urinary threshold (rabbit; anesthetized rabbit): lowers the urinary threshold
significance of differences compared with the controls (rabbit; rabbit, acute I.V. 5 and 50 mg/kg): highly significant
variations of the same parameters (ΔP, perfusion volume) (rabbit; rabbit, acute I.V. 5 and 50 mg/kg, second and third perfusions, compared with chronic administration): Variations in the same direction of the same parameters and in the same proportions
decrease of the perfusion volume compared with the controls (rabbit; rabbit, intramuscular, 10 mg/kg/day for 8 days): about half
reduction of ΔP (P2 - P1) compared with control batch (rabbit; rabbit, intramuscular, 10 mg/kg/day for 8 days, as from the first perfusion): about a third
difference of ΔP compared with the controls at the third perfusion (rabbit; rabbit, intramuscular, 10 mg/kg/day for 8 days, third perfusion): reduced at the third perfusion
LD50 [1, 5]: 130 to 135 mg/kg
LD50 [1, 6]: 315 to 323 mg/kg
LD50 ([1]; oral, read-out: LD50 P.O.): 992 to 1050 mg/kg
LD50 [1, 7]: 936 to 960 mg/kg
superiority over placebo [4]: very significant
vesical tolerance (man; man, two cases of serious neurological bladder): increase in the vesical tolerance
volume at which need to urinate occurs (man; person, multiple sclerosis, intramuscular, two 100 mg ampules, 80 cm^3 before treatment): 150 cm^3
time of voluntary prevention of urination (man; person, psychogenic urinary disorders, intramuscular, two 100 mg ampules, 15 seconds before treatment): 2 min
volume at which need to urinate occurs (man; person, psychogenic urinary disorders, intramuscular, two 100 mg ampules, 200 cm^3 before treatment): 400 cm^3
